Columns and labels:
Format in all cases: cell-based
[1] = test system: normal fibroblastic epithelial cell line (HFL1); experiment: MTT cytotoxicity assay, HFL1; settings: HFL1 cells
Description: Three cell lines were used to determine the cytotoxicity of the complexes, a human cervical carcinoma line (HeLa), a human radical growth phase melanoma cell line (WM35), and a normal fibroblastic epithelial cell line (HFL1) using the MTT method. The cells were exposed to C1 and C2 complexes in different concentrations (50, 25, 12.5, 2, and 0.2 µM) at 24, 48, and 72 h. As positive contro, cisplatin was used.
To determine the cytotoxicity of the copper complexes, three cell lines were used: a human cervical carcinoma line (HeLa), a human radical growth phase melanoma cell line (WM35), and a normal fibroblastic epithelial cell line (HFL1). The cell lines were obtained from ATCC (American Type Cell Collection, Manassas, VA 20110-2209, USA) and were maintained in DMEM (Sigma-Aldrich, Saint Louis, Missouri, USA) supplemented with 10% fetal bovine serum (Hyclone), 1 mM glutamine (Sigma-Aldrich), and 1% antibiotic antimycotic 100× (Sigma-Aldrich). The cells were cultured at 37 °C in an atmosphere of 5% CO2 and 95% relative humidity.
The cytotoxicity assays were performed using the MTT assay (3-(4,5-dimethylthiazol-2-yl)-2,5-diphenyl tetrazolium bromide-Sigma Aldrich). Cells were plated at a density of 1 × 10^5 cells/well in 96-well plates for 24 h in normal propagation media. The cultures were then exposed to C1 and C2 complexes in different concentrations (50, 25, 12.5, 2, and 0.2 µM). The complexes were first solubilized in DMSO (Sigma) and then serial dilutions in media were performed until the final concentration of DMSO was less than 1%. As a positive control, cisplatin (Ebewe Pharma Ges.m.b.H. Nfg. KG, Austria) was used, in the same concentrations as the complexes. As a negative control, cell lines cultivated in normal expansion medium with the same amount of DMSO added were used. The cellular viability was determined using the MTT assay at 24, 48, and 72 h, respectively. Formazan particles were solubilized with DMSO and absorbances were determined at 550 nm using a microplate reader (Bio-Rad, Hercules, CA, USA). The cytotoxic activity, expressed as IC50 values representing the complex solution required to inhibit 50% of the cell proliferation, were calculated from the calibration curve by nonlinear regression. Each experiment was carried out in triplicate.

[2] = test system: Escherichia coli ATCC 10536; experiment: MIC, serial broth microdilution, E. coli; settings: 24 h, 37 °C
Description: The values of MIC, defined as the lowest concentration of antimicrobial complex that prevents visible growth of germs, are presented in Table S4 in the Supplementary Material. To quantify the copper complexes effectiveness as antibacterial agents, their minimum inhibitory concentrations (MICs) were determined using the serial broth microdilution method described by Quinn et al. and Markey et al.. The method was adapted for the purposes of the current study, according to the standards developed by the Clinical and Laboratory Standards Institute. The tests were performed on the same Gram-positive and Gram-negative reference microbial strains. Ten successive dilutions of the copper complexes solutions (1/2 to 1/1024) in nutrient broth (Merck KGaA, Darmstadt, Germany) were performed and then were placed in sterile microplates (one each for every copper complex). The microplates were incubated at 37 ± 2 °C for 24 h. Comparisons of the amount of bacterial growth in each well containing copper complexes solutions with the amount of growth in the growth control wells were performed and the maximal dilution for which the tested copper complexes inhibited bacterial growth was determined.

[3] = test system: Pseudomonas aeruginosa ATCC 27853; experiment: Disk diffusion method, P. aeruginosa; settings: complexes 5 µL of 1 mg/mL; 5 µg Norfloxacin; 24 h, 37 °C
Excerpt: The disk diffusion method was used to determine the antibacterial activity of the C1 and C2 copper complexes on four reference microbial strains, two Gram-positive (Staphylococcus aureus and Bacillus cerreus) and two Gram-negative (Escherichia coli and Pseudomonas aeruginosa) strains. The disk diffusion method was used to determine the antibacterial activity of the C1 and C2 copper complexes. The method was adapted for the purposes of the current study, according to the standards developed by the Clinical and Laboratory Standards Institute. Four reference microbial strains, two Gram-positive (Staphylococcus aureus ATCC […] and Bacillus cerreus ATCC 14579) and two Gram-negative (Escherichia coli ATCC 10536 and Pseudomonas aeruginosa ATCC 27853) strains, were used for in vitro susceptibility testing. These reference microbial strains were obtained from the American Type Culture Collection (ATCC, Manassas, VA, USA). As positive controls, Amoxicillin (Oxoid Ltd., Basingstoke, UK) and Norfloxacin (Sigma-Aldrich) were used. For each of the four species, an initial suspension of bacterial cultures was inoculated on nutrient agar plates (Merck KGaA, Darmstadt, Germany), incubated for 24 h at 37 ± 2 °C and resuspended in a physiological saline buffer to a […] concentration (on a 0.5 McFarland scale), and further inoculated on Muëller Hinton agar plates (Merck KGaA, Darmstadt, Germany). […] After inoculation, the medium surface was dried and 8 wells were radially drilled 1.5 cm from the outer edge, 3 cm apart. From aliquot samples of 1 mg/mL of each copper complex dissolved in DMSO and incorporated in sterile liquid medium, 5 μL was placed in each of the 8 wells and left for 30 min to diffuse into the agar plates. The plates were then incubated for 24 h at 37 ± 2 °C. Then, 25 μg Amoxicillin and 5 μg Norfloxacin served as a positive controls, while DMSO 0.75% was used as a negative control. Readings were conducted by measuring the diameter of the inhibition zone (Halo Zone Test, in mm). The germ sensitivity of the copper complexes was estimated by comparing the diameter of the inhibition area to that generated by the regular antibiotics with known inhibition values. […] All tests were triplicated, and the measured diameters of the inhibition zone were expressed (in mm) as mean ± standard deviation.

Q: Which IC50 ([1]; 24 h) does the source give for “[Cu(N-(5-Ethyl--[1,3,4]-Thiadiazole-2-yl) Naphtalenesulfonamidate)2(py)2(H2O)] [C2]” here?
A: Its IC50 is 18 ± 1.08 µM.

Q: What about the IC50 ([1]; 48 h) of the same substance?
A: The IC50 was 5.55 ± 0.22 µM.

Q: And the IC50 ([1]; 72 h)?
A: The IC50 was 2.03 ± 0.04 µM.

Q: What about the MIC [2] of the same substance?
A: Its MIC is 0.184 µg/mL.

Q: And the “Halo Zone Test (diameter of the inhibition zone)” value [3]?
A: Its value is 19 ± 0.19 mm.

Q: What does the source list for “[Cu(N-(5-(4-Methylphenyl)-[1,3,4]-Thiadiazole-2-yl) Naphtalenesulfonamidate)2(H2O)3] [C1]”?
A: IC50 ([1]; 24 h): 44.7 ± 0.51 µM; IC50 ([1]; 48 h): 7.38 ± 0.12 µM; IC50 ([1]; 72 h): 3.75 ± 0.15 µM; MIC [2]: 0.231 µg/mL; Halo Zone Test (diameter of the inhibition zone) [3]: 15 ± 0.32 mm

From PMC9144936, “New Cu^+2 Complexes with N-Sulfonamide Ligands: Potential Antitumor, Antibacterial, and Antioxidant Agents” (Molecules, 2022)
